The nature of series [1]: Clearance in Sprague-Dawley rat at 2 mg/kg, iv measured upto 24 hrs by LC-MS/MS analysis. It counts as ADME, organism-based. Conditions: in vivo.
Series [2] can be described thus: Cmax in Sprague-Dawley rat at 20 mg/kg, po measured upto 24 hrs by LC-MS/MS analysis. It is filed as ADME, organism-based. More on the design: dose 20 mg/kg, time < 24 hrs, route po. Conditions: in vivo.
Series [3] concerns Caco-2. As to the kind of experiment: Antiproliferative activity against human Caco-2 cells assessed as reduction in cell growth incubated for 24 hrs by WST-8 cell proliferation assay. It counts as functional, cell-based.
Series [4] has as its system Caco-2. As to the kind of experiment: Inhibition of SOC activity in human Caco-2 cells at 1 uM induced by thapsigargin for 5 mins followed by Ca2+ […] addition and measured after 5 mins after compound addition by Ca2+ imaging method. It is filed as cell-based.
The nature of series [5]: AUC (0 to infinity) in Sprague-Dawley rat at 2 mg/kg, iv measured upto 24 hrs by LC-MS/MS analysis. Conditions: in vivo. More on the design: dose 2 mg/kg, time < 24 hrs, route iv. It counts as ADME, organism-based.
Series [6] concerns Caco-2. As to the kind of experiment: Inhibition of SOC activity in human Caco-2 cells co-transfected with STIM1-YFP/Orai1-mCherry assessed as reduction in thapsigargin induced STIM1-Orai1 interaction at 1 uM preincubated with thapsigargin for 2 mins followed by compound treatment by time-lapse TIRF-FRET assay. It counts as cell-based.
A short description of series [7]: Half life in Sprague-Dawley rat at 2 mg/kg, iv measured upto 24 hrs by LC-MS/MS analysis. It is filed as ADME, organism-based. Conditions: in vivo.
Series [8] in a line: AUC (0 to infinity) in Sprague-Dawley rat at 20 mg/kg, po measured upto 24 hrs by LC-MS/MS analysis. It counts as ADME, organism-based. On the set-up: dose 20 mg/kg, time < 24 hrs, route po. Conditions: in vivo.
Series [9] can be described thus: Half life in Sprague-Dawley rat at 20 mg/kg, po measured upto 24 hrs by LC-MS/MS analysis. Conditions: in vivo. It is filed as ADME, organism-based.
Series [10] concerns Caco-2. As to the kind of experiment: Inhibition of cell migration in human Caco-2 cells assessed as reduction in cell motility at 1 uM measured after 24 hrs by wound healing assay. It is filed as functional, cell-based.
The nature of series [11]: Tmax in Sprague-Dawley rat at 20 mg/kg, po measured upto 24 hrs by LC-MS/MS analysis. It is filed as ADME, organism-based. Conditions: in vivo.
Series [12] concerns Caco-2. As to the kind of experiment: Inhibition of cell invasion in human Caco-2 cells assessed as suppression of cell growth at 1 uM measured after 48 hrs by crystal violet staining based analysis. It counts as functional.
A short description of series [13]: Volume of distribution at steady state in Sprague-Dawley rat at 2 mg/kg, iv measured upto 24 hrs by LC-MS/MS analysis. It is filed as ADME, organism-based. Conditions: in vivo, read-out: Vdss.
For series [14], the system named is Caco-2. As to the kind of experiment: Inhibition of SOC activity in human Caco-2 cells co-transfected with STIM1-YFP/Orai1-mCherry assessed as reduction in thapsigargin induced STIM1-Orai1 interaction at 1 uM preincubated with thapsigargin for 2 mins followed by compound treatment by calcium influx assay. It counts as cell-based.
Series [15] deals with Caco-2. As to the kind of experiment: Inhibition of cell migration in human Caco-2 cells assessed as suppression of cell growth at 1 uM measured after 48 hrs by transwell migration assay. It counts as functional, cell-based.
Series [16] concerns Caco-2. As to the kind of experiment: Inhibition of SOC activity in human Caco-2 cells co-transfected with STIM1-YFP/Orai1-mCherry assessed as reduction in thapsigargin induced STIM1-Orai1 interaction at 1 uM preincubated with compound for 30 mins followed by thapsigargin induction by time-lapse TIRF-FRET assay. It counts as cell-based.
Series [17] relates to Caco-2. As to the kind of experiment: Inhibition of SOC activity in human Caco-2 cells assessed as stabilization of STIM1-EB1 complex by immunoprecipitation-Western blot analysis. It is filed as cell-based. On the technique in general: Immunoblotting shows a protein as a band on a membrane.
The nature of series [18]: Oral bioavailability in Sprague-Dawley rat at 20 mg/kg measured upto 24 hrs by LC-MS/MS analysis. Conditions: in vivo. It is filed as ADME, organism-based.

Calls of active or inactive are those of the source.

Turning to `O=C(Nc1ccc(-c2ccc(F)cc2)cn1)c1c(F)cccc1F`, in series [1], the clearance (usually the rate of elimination divided by the concentration) worked out at 2.4 mL/min/kg. In series [2], the concentration peaked (Cmax) at 2160 ng/mL. Further, the result in the series on Caco-2 [3] was inactive. Further, the inhibition entry in the series with Caco-2 [4], in the series on Caco-2 [6], with Caco-2 [10], in the series with Caco-2 [12], with Caco-2 [14] and in the series with Caco-2 [15] was “Active” each time. Moreover, the inhibition entry with Caco-2 [16] and in the series on Caco-2 [17] was “Active” throughout. The AUC(0-inf) (usually the area under the concentration-time curve extrapolated to infinity) in series [5] stood at 15900 ng·h/mL; in series [8] it was 54000 ng·h/mL. Also, the results for the half-life in [7] and in [9] were 24 h and 16 h, respectively. The Tmax – broadly, the time at which the peak concentration occurs – in series [11] amounted to 6 h. Also, the Vd in [13] worked out at 3.9 L/kg. The bioavailability (in general, the share of a dose that reaches the circulation, judged against a reference dose that is usually intravenous) in series [18] came out at 34%.
On to `COc1ccc(-c2ccc(NC(=O)c3c(F)cccc3F)nc2)cc1OC`, for which the inhibition result in the series on Caco-2 [4] is “Active”.
With `O=C(Nc1ccc(-c2cccc(Cl)c2)cn1)c1c(F)cccc1F`, the inhibition entry in the series on Caco-2 [10] was “Active”.
With `O=C(Nc1ccc(-c2ccco2)cn1)c1c(F)cccc1F`, the inhibition entry in the series on Caco-2 [4] and with Caco-2 [10] was “Active” throughout.
Turning to `O=C(Nc1ccc(NC(=O)c2c(F)cccc2F)cc1)c1cncc(F)c1`, in the series with Caco-2 [4], the inhibition entry is “Active”.
Compound `COc1ccc(OC)c(-c2ccc(NC(=O)c3ccncc3F)cc2)c1` returned a clearance in series [1] of 34.4 mL/min/kg. For the same compound, the highest concentration (Cmax) (commonly the maximum level reached in the sampled fluid or tissue) in series [2] is 257 ng/mL. The outcome in the series with Caco-2 [3] was inactive. The AUC(0-inf) in series [5] worked out at 969 ng·h/mL; in series [8], 2000 ng·h/mL. Moreover, the half-life (as a rule, the time needed for the level to fall by half in the phase considered) in [7] was 5.2 h; in series [9] it was 2.5 h. The time to peak (Tmax) in series [11] was found to be 3.3 h. Moreover, the Vd in [13] came to 2.4 L/kg. Moreover, the inhibition entry in the series with Caco-2 [14] and in the series with Caco-2 [16] was “Active” each time. In addition, in [18], the bioavailability is 20.6%.

The values above are taken from ChEMBL document CHEMBL5331062, “2,6-Difluorobenzamide derivatives as store-operated calcium channel (SOC) inhibitors” (Eur J Med Chem, 2022).
